Assay results from ChEMBL document CHEMBL5385860, “Antiproliferative, antiangiogenic and apoptotic effect of new hybrids of quinazoline-4(3H)-ones and sulfachloropyridazine” (Eur J Med Chem, 2023).

How the values were obtained:
UO-31 [1] = experiment: Induction of apoptosis in human UO-31 cells assessed as necrotic cells at IC50 by Annexin V-FITC/PI staining based flow cytometry analysis (reference value: 1.19%); format: functional
[2] = molecular target: Vascular endothelial growth factor A, long form (Homo sapiens) (UniProt P15692); experiment: Inhibition of VEGF-mediated cell migration in HUVEC cells assessed as wound closure at 10 ug/ml measured after 72 hrs by scratch-wound healing assay; format: cell-based; design: scale not given: the % may be the effect or the level left; conditions: dose 10.0 µg/ml
Chain of Vascular endothelial growth factor A, long form (Homo sapiens) (P15692 whole entry): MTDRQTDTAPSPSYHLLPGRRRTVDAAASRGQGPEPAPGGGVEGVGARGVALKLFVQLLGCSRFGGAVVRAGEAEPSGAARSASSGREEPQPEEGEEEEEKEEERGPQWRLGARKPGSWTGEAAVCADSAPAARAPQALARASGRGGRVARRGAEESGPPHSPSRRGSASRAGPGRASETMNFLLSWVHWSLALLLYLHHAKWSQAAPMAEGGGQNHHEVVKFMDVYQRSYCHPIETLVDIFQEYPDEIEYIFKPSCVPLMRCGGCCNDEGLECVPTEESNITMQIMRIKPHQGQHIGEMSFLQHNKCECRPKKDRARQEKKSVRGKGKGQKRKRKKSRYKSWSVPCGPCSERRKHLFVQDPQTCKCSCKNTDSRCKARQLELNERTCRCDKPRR

UO-31 [3] = experiment: Induction of apoptosis in human UO-31 cells assessed as early apoptotic cells at IC50 by Annexin V-FITC/PI staining based flow cytometry analysis (reference value: 0.61%); format: functional
UO-31 [4] = experiment: Induction of apoptosis in human UO-31 cells assessed as late apoptotic cells at IC50 by Annexin V-FITC/PI staining based flow cytometry analysis (reference value: […]); format: functional
UO-31 [5] = experiment: Induction of apoptosis in human UO-31 cells assessed as Bcl-2 protein level by ELISA (reference value: 12.19 +/- 0.64 ng/ml); format: functional
UO-31 [6] = experiment: Induction of cell cycle arrest in human UO-31 cells assessed as cell aggregates at 1.67 uM measured after 24 hrs by PI staining based flow cytometry analysis (reference value: 1.82%); format: functional
UO-31 [7] = experiment: Induction of apoptosis in human UO-31 cells assessed as Bax protein level by ELISA (reference value: 70.11 +/- 7.45 pg/ml); format: functional
[8] = Inhibition of PDGFR (unknown origin) incubated for 60 mins in presence of ATP by ADP-Glo kinase assay; design: species or system Homo sapiens
UO-31 [9] = experiment: Induction of apoptosis in human UO-31 cells assessed as increase in caspase-3 level by measuring optical density by Western blot densitometry analysis (reference value: 0.095); format: functional
UO-31 [10] = experiment: Induction of apoptosis in human UO-31 cells assessed as fold decrease in Bcl-2 protein level by ELISA relative to control; format: functional
UO-31 [11] = experiment: Induction of cell cycle arrest in human UO-31 cells assessed as accumulation of cells in S phase at 3.61 uM measured after 24 hrs by PI staining based flow cytometry analysis (reference value: 36.42%); format: functional
M14 [12] = experiment: cells; conditions: Homo sapiens, M14, 24 h
UO-31 [13] = format: functional, Homo sapiens; conditions: dose 3.61 µM; time 24 hrs
UO-31 [14] = experiment: Induction of cell cycle arrest in human UO-31 cells assessed as accumulation of cells in G0-G1 phase at 3.61 uM measured after 24 hrs by PI staining based flow cytometry analysis (reference value: 49.26%); format: functional
M14 [15] = experiment: cells; conditions: Homo sapiens, M14, light or radiation study
UO-31 [16] = experiment: Induction of cell cycle arrest in human UO-31 cells assessed as accumulation of cells in G2/M phase at 3.61 uM measured after 24 hrs by PI staining based flow cytometry analysis (reference value: 14.32%); format: functional
UO-31 [17] = experiment: Induction of apoptosis in human UO-31 cells assessed as fold increase in Bax protein level by ELISA relative to control; format: functional
UO-31 [18] = experiment: Induction of cell cycle arrest in human UO-31 cells assessed as cell aggregates at 3.61 uM measured after 24 hrs by PI staining based flow cytometry analysis (reference value: 1.82%); format: functional
SNB-75 [19] = experiment: cells; conditions: Homo sapiens, SNB-75, 24 h
UO-31 [20] = experiment: cells; conditions: Homo sapiens, UO-31, light or radiation study
UO-31 [21] = experiment: cells; conditions: Homo sapiens, UO-31, 24 h
UO-31 [22] = experiment: Induction of cell cycle arrest in human UO-31 cells assessed as cell debris at 3.61 uM measured after 24 hrs by PI staining based flow cytometry analysis (reference value: 2.19%); format: functional
[23] = Cytotoxicity against human RPTEC cells assessed as inhibition of cell growth incubated for 24 hrs by MTT assay; format: toxicity, cell-based
HCT-116 = experiment: cells; conditions: Homo sapiens, HCT-116, 24 h
KM12 = experiment: Cytotoxicity against human KM12 cells assessed as growth inhibition at 10 uM relative to control; format: functional; conditions: read-out: GI
HT-29 = experiment: Cytotoxicity against human HT-29 cells assessed as growth inhibition at 10 uM relative to control; format: functional; conditions: read-out: GI
786-0 = experiment: Cytotoxicity against human 786-0 cells assessed as growth inhibition at 10 uM relative to control; format: functional; conditions: read-out: GI
BT-549 = experiment: Cytotoxicity against human BT-549 cells assessed as growth inhibition at 10 uM relative to control; format: functional; conditions: read-out: GI
EKVX = experiment: Cytotoxicity against human EKVX cells assessed as growth inhibition at 10 uM relative to control; format: functional; conditions: read-out: GI
SR = experiment: Cytotoxicity against human SR cells assessed as growth inhibition at 10 uM relative to control; format: functional; conditions: read-out: GI
IGROV-1 = experiment: Cytotoxicity against human IGROV-1 cells assessed as growth inhibition at 10 uM relative to control; format: functional; conditions: read-out: GI
Hs-578T = experiment: Cytotoxicity against human Hs-578T cells assessed as growth inhibition at 10 uM relative to control; format: functional; conditions: read-out: GI
NCI-H522 = experiment: Cytotoxicity against human NCI-H522 cells assessed as growth inhibition at 10 uM relative to control; format: functional; conditions: read-out: GI
A498 = experiment: Cytotoxicity against human A498 cells assessed as growth inhibition at 10 uM relative to control; format: functional; conditions: read-out: GI
MCF7 = experiment: Cytotoxicity against human MCF7 cells assessed as growth inhibition at 10 uM relative to control; format: functional; conditions: read-out: GI
CCRF-CEM = experiment: Cytotoxicity against human CCRF-CEM cells assessed as growth inhibition at 10 uM relative to control; format: functional; conditions: read-out: GI
SF-268 = experiment: Cytotoxicity against human SF-268 cells assessed as growth inhibition at 10 uM relative to control; format: functional; conditions: read-out: GI
MDA-MB-231 = experiment: Cytotoxicity against human MDA-MB-231 cells assessed as growth inhibition at 10 uM relative to control; format: functional; conditions: read-out: GI
T47D = experiment: Cytotoxicity against human T47D cells assessed as growth inhibition at 10 uM relative to control; format: functional; conditions: read-out: GI
SK-OV-3 = experiment: Cytotoxicity against human SK-OV-3 cells assessed as growth inhibition at 10 uM relative to control; format: functional; conditions: read-out: GI
MOLT-4 = experiment: Cytotoxicity against human MOLT-4 cells assessed as growth inhibition at 10 uM relative to control; format: functional; conditions: read-out: GI
K562 = experiment: Cytotoxicity against human K562 cells assessed as growth inhibition at 10 uM relative to control; format: functional; conditions: read-out: GI
RPMI-8226 = experiment: Cytotoxicity against human RPMI-8226 cells assessed as growth inhibition at 10 uM relative to control; format: functional; conditions: read-out: GI
HOP-92 = experiment: Cytotoxicity against human HOP-92 cells assessed as growth inhibition at 10 uM relative to control; format: functional; conditions: read-out: GI
MDA-MB-468 = experiment: Cytotoxicity against human MDA-MB-468 cells assessed as growth inhibition at 10 uM relative to control; format: functional; conditions: read-out: GI
UACC-62 = experiment: Cytotoxicity against human UACC-62 cells assessed as growth inhibition at 10 uM relative to control; format: functional; conditions: read-out: GI
UO-31 [24] = experiment: Cytotoxicity against human UO-31 cells assessed as growth inhibition at 10 uM relative to control; format: functional; conditions: read-out: GI
LOX IMVI = experiment: Cytotoxicity against human LOX IMVI cells assessed as growth inhibition at 10 uM relative to control; format: functional; conditions: read-out: GI
SNB-75 [25] = experiment: Cytotoxicity against human SNB-75 cells assessed as growth inhibition at 10 uM relative to control; format: functional; conditions: read-out: GI
RXF 393 = experiment: Cytotoxicity against human RXF 393 cells assessed as growth inhibition at 10 uM relative to control; format: functional; conditions: read-out: GI
CAKI-1 = experiment: Cytotoxicity against human CAKI-1 cells assessed as growth inhibition at 10 uM relative to control; format: functional; conditions: read-out: GI
A549 = experiment: Cytotoxicity against human A549 cells assessed as growth inhibition at 10 uM relative to control; format: functional; conditions: read-out: GI

Row | IC50 (UO-31 [20]) | IC50 (UO-31 [21]) | SMILES | Activity (UO-31 [1]) | Activity (UO-31 [3]) | Activity (UO-31 [4]) | Activity (UO-31 [5]) | Activity (UO-31 [7]) | inhibition of growth at 10 µM (786-0) | inhibition of growth at 10 µM (SR) | inhibition of growth at 10 µM (NCI-H522) | inhibition of growth at 10 µM (A498) | inhibition of growth at 10 µM (MCF7) | inhibition of growth at 10 µM (T47D) | inhibition of growth at 10 µM (MOLT-4) | inhibition of growth at 10 µM (RPMI-8226) | inhibition of growth at 10 µM (MDA-MB-468) | inhibition of growth at 10 µM (UACC-62) | inhibition of growth at 10 µM (UO-31 [24]) | also measured
1 |  |  | CNC(=O)c1cc(Oc2ccc(NC(=O)Nc3ccc(Cl)c(C(F)(F)F)c3)cc2)ccn1 [SORAFENIB] | 4.72% | 19.42% | 31.17% | 3.898 ng/mL | 409.2 pg/mL |  |  |  |  |  |  |  |  |  |  |  | Activity [2]: 46.7%; Activity (UO-31 [6]): 1.47%; IC50 [8]: 0.04 µM
2 | 3.01 µM | 3.61 µM | COc1cccc2c1C(=O)c1c(O)c3c(c(O)c1C2=O)C[C@@](O)(C(=O)CO)C[C@@H]3O[C@H]1C[C@H](N)[C@H](O)[C@H](C)O1 [DOXORUBICIN] | 11.03% | 14.13% | 26.5% | 4.396 ng/mL | 392.1 pg/mL |  |  |  |  |  |  |  |  |  |  |  | OD (UO-31 [9]): 0.844; fold change (FC) (UO-31 [10]): 0.36; Activity (UO-31 [11]): 48.62%; IC50 (M14 [12]): 5.11 µM; Activity (UO-31 [13]): 51.66%; Activity (UO-31 [14]): 43.47%; IC50 (M14 [15]): 2.13 µM; Activity (UO-31 [16]): 7.91%; fold change (FC) (UO-31 [17]): 5.59; Activity (UO-31 [18]): 2.13%; IC50 (SNB-75 [19]): 5.82 µM; Activity (UO-31 [22]): 1.66%; IC50 at 24 h [23]: 12.5 µM; IC50 (HCT-116): 0.49 µM
3 | 3.49 µM | 3.14 µM | O=C(CSc1nc2ccccc2c(=O)n1-c1ccc(S(=O)(=O)Nc2ccc(Cl)nn2)cc1)NCCc1ccccc1 |  |  |  |  |  | 16% | 21% | 22% | 37% | 24% | 27% | 20% | 11% | 10% | 20% | 29% | inhibition of growth at 10 µM (KM12): 14%; inhibition of growth at 10 µM (HT-29): 11%; inhibition of growth at 10 µM (BT-549): 10%; inhibition of growth at 10 µM (EKVX): 24%; inhibition of growth at 10 µM (IGROV-1): 15%; inhibition of growth at 10 µM (Hs-578T): 23%; inhibition of growth at 10 µM (CCRF-CEM): 14%; inhibition of growth at 10 µM (SF-268): 13%; inhibition of growth at 10 µM (MDA-MB-231): 20%; inhibition of growth at 10 µM (SK-OV-3): 20%; inhibition of growth at 10 µM (K562): 11%; inhibition of growth at 10 µM (HOP-92): 12%; inhibition of growth at 10 µM (LOX IMVI): 14%
4 |  |  | O=C(CSc1nc2ccccc2c(=O)n1-c1ccc(S(=O)(=O)Nc2ccc(Cl)nn2)cc1)NCc1ccccc1 |  |  |  |  |  | 10% | 12% | 14% | 18% | 11% | 24% | 12% | 21% | 16% | 18% | 12% | inhibition of growth at 10 µM (SNB-75 [25]): 12%; inhibition of growth at 10 µM (RXF 393): 18%; inhibition of growth at 10 µM (CAKI-1): 14%; inhibition of growth at 10 µM (A549): 11%
